Test results as given in paper PMC11189555, “Aryl amino acetamides prevent Plasmodium falciparum ring development via targeting the lipid-transfer protein PfSTART1” (Nature Communications, 2024).
“Also recorded” adds a separate entry of the source.

Assays:
[1] = molecular target: T1, PfSTART1 in parasite lysate (Plasmodium falciparum, UniProt Q8I298); experiment: Solvent profiling Western Blot (solvent induced protein precipitation); type: binding; details: 10 µM W-991 vs DMSO, 0-25% AEF
T1 construct: endogenous in cells; host or cells: P. falciparum 3D7 schizonts, NP40-soluble lysate
T1 sequence (Q8I298 entry or part of it): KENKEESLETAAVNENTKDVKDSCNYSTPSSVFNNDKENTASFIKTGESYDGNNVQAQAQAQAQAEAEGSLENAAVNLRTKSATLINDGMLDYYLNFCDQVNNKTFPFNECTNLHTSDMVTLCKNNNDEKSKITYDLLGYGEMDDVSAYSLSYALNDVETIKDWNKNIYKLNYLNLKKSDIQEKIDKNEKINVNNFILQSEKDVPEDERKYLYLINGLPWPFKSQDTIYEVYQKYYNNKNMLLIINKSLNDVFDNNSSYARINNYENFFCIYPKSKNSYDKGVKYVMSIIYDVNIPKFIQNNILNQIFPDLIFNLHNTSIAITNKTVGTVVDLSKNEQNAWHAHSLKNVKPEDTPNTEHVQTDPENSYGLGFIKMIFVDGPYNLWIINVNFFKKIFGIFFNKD
Procedure: 3D7 parasites at schizont stage were harvested with 10 x pellet volume of 0.15% saponin in PBS. To extract soluble material, 10 x pellet volume of 0.4% NP40 (IGEPAL CA-630, Sigma-Aldrich) in PBS with 1x Complete Protease cocktail tablet (Sigma-Aldrich) was added to the parasite pellets and 3 cycles of freeze/thawing was performed. Samples were then mechanically sheared by passage through 25 G and 30 G needles before lysate was cleared via centrifugation at 16,000 g x 30 min at 4 °C. Soluble fractions were collected and stored at −80 °C until use.
For the solvent challenge, lysate was subjected to either W-991 (10 µM) or DMSO (0.1%) treatment for 3 min before aliquoted into final concentrations of 0-25% of Acetic acid/Ethanol/Formic acid (AEF) at a 50:50:0.1 (v/v/v)[25],[26]. The treated lysate and AEF mixture was incubated at 37 °C for 20 min at 800 rpm before aggregates were pelleted at 17,000 g x 20 min at 4 °C. Soluble fractions were removed, added to the final concentration of 1x NuPAGE LDS Sample Buffer (Invitrogen) with 1:100 2-mercaptoethanol (Sigma Aldrich) and boiled for 3 min. Proteins were separated on an 4-12% acrylamide gel (NuPAGE, Invitrogen) and subsequently transferred by electroblotting onto nitrocellulose membranes. Blots were probed with primary antibody anti-PfSTART1 (1:1000), followed by secondary antibody anti-rabbit-HRP (1:4000, Merck Millipore). […]

stage IV-V gametocytes = experiment: Standard membrane feeding assay: stage V gametocytes on day 17; type: cell-based, Plasmodium falciparum; details: days 14-17; for Percentage of Stage V gametocytes: Fig 7C, untreated 4.75
Procedure: These assays were performed at the Walter and Eliza Hall Institute and at the London School of Hygiene and Tropical Medicine using slightly different approaches which are described in the Supplementary Information. […]
Gametocyte culturing and standard membrane feeding assay (London School of Hygiene and Tropical Medicine). P. falciparum NF54 gametocytes were prepared for blood-feeding to mosquitoes according to the method described by 13, with some slight modifications. Briefly, gametocyte cultures seeded at 2% overall parasitaemia and 4% haematocrit were maintained at 37 °C for 17 days with daily media changes.
Gametocyte functional viability was assessed by ex-flagellation assay at day 14 post induction, observed by light microscopy. An. stephensi (SD500 strain) were reared as […]
Gametocyte aliquots from a single NF54 culture, produced as above, were incubated […]
or culture medium only (no -drug control) from day 14 until day 17 when SMFA was carried out. Fresh drug -containing media was provided each day during this exposure.
Pots of 70 -80 two- to five-day old female An. stephensi mosquitoes were allowed to feed on 500 µL of the respective culture+drug mixture, presented to each pot in a pre - heated 3D -printed water channel membrane feeder 15, until fully fed. Mosquitoes were placed in an incubator at standard conditions and midguts dissected in 0.25% mercurochrome stain for oocyst counts by light microscopy 7-8 days post-feed. […]

CC(C)(Nc1ccc(Cl)c(S(=O)(=O)N2CCOCC2)c1)C(=O)Nc1ccc(F)c(Cl)c1 [W-991]
AEF concentration at which protection to PfSTART1 aggregation was elicited [1]: 19-21 % AEF | Percentage of Stage V gametocytes (stage IV-V gametocytes; W-991 1 nM): 5% | Percentage of Stage V gametocytes (stage IV-V gametocytes; W-991 50 nM): 5.3% | Percentage of Stage V gametocytes (stage IV-V gametocytes; W-991 100 nM): 5% | effect on gametocyte development (stage IV-V gametocytes; W-991 1, 50, 100 nM): no defect in gametocyte development; also recorded: no impact
